Data on one compound can be found in US20240376154A1, “BIS-INTERCALATING PEPTIDES, CONJUGATES AND METHODS OF USE” (ZYMEWORKS BC INC., priority 2023, published 2024).

Data set [1] can be described thus: Stability in female mouse plasma. To be noted: female, mouse, plasma, 37° C., 24 h. The class given is in vitro ADME. The protocol:
The stability of exemplary compounds of general Formula I in mouse plasma was evaluated as follows.
Compounds were incubated at 1 μM in duplicate in female mouse plasma, 250 μL final volume, at 37° C. for 24 h. Aliquots were sampled at 0, 15, 30, 60, 120, 240, 480 and 1440 min. Proteins were precipitated by addition of 5 volumes of cold methanol. After centrifugation 10000×g for 10 min, the residual concentration of compound in the supernatant was measured using an appropriate LC-MS/MS method. The measured concentrations were expressed as a function of time through a one-phase decay exponential regression calculated using GraphPad Prism software (GraphPad Software, Inc.) to generate the plasma half-life for each compound.

The test system of data set [2] is OVKATE (Ovarian Adenocarcinoma). The data set is described as follows: Cell proliferation assay, OVKATE. The class given is cell-based. The note with it: 5 nights. How it is done:
(§1) The ability of Compound 419 and Compound 424 to inhibit proliferation of tumour cells in vitro was measured by a cell proliferation assay using the following tumour cell lines: IGROV-1 (Ovarian Adenocarcinoma, NCI), JEG-3 (Placental Choriocarcinoma, AddexBio (C0030003)) and OVKATE (Ovarian Adenocarcinoma, Japanese Collection of Research Bioresources (JCRB) (JCRB1044)).
(§2) Cell lines were cultured as per vendor instructions prior to running the cell proliferation assay. Briefly, on the day prior to adding compound, cells (50 μL/well, 1000 cells/well) were added to sterile, tissue culture (TC)-treated, 384-well plates (ThermoFisher Scientific, Catalogue #164610) and incubated overnight at 37° C./5% CO2 to allow the cells to adhere to the plate surface. The next day, in a sterile, V-bottom, 96-well plate, compounds were titrated 1:3 in complete growth medium, creating a 10-point dose response titration with compounds at 3.5-times the desired final concentration. Control wells with no compound (growth medium only) were included for each compound titration in 96-well dilution plates. 20 uL from the 10-point dose response titration were added to the 384-well plate containing the seeded cells, in duplicate. Plates were incubated at 37° C./5% CO2 for 5 nights. After 5-night incubation, cell viability was quantified by the addition of 15 uL/well of CellTiter-Glo® (Promega, Catalogue #G7572) and incubation at room temperature for 30 minutes. After 30-minute incubation, luminescence was measured using a microplate luminometer (BioTek® Synergy™ H1 Microplate Reader). The resulting relative light units (RLU values) were converted to % cytotoxicity using the growth medium only control wells mentioned above:
(§3) Data was fit into 4-parameter logistic to curves using non-linear regression methods available with GraphPad Prism software (GraphPad Software, Inc.).

For data set [3], the system named is JEG-3 (Placental Choriocarcinoma). The data set is described as follows: Cell proliferation assay, JEG-3. It is filed as cell-based. To be noted: 5 nights. How it is done:
as §1, §2, §3

Data set [4] relates to tumour cells (at least 4 of a panel of ovarian, breast, lung, pancreatic, placenta, colon cell lines). The data set is described as follows: In vitro cytotoxicity (cell proliferation, CellTiter-Glo), average over tumour cell line panel. The note with it: average pIC50 on all cell lines tested; 5 nights incubation; CellTiter-Glo. It is filed as cell-based. A digest of the protocol:
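Each cell line seeded at ~1000 cells/well and left to adhere overnight, then given a 10-point 1:3 compound titration for 5 nights at 37° C, 5% CO2. Viability read by CellTiter-Glo luminescence; IC50 per line, reported as pIC50 averaged across at least 4 lines.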
(In general: Cellular ATP, detected with luciferase, serves as a proxy for viable cell number.)

The subject of data set [5] is herring sperm DNA. The data set is described as follows: DNA melting temperature by differential scanning calorimetry (DSC). The class given is binding. The note with it: DSC; herring sperm DNA; DNA melting temperature = 68° C. In short, it runs like this:
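Herring sperm DNA at 1 mg/mL (1.4 mM base pair) in BPE buffer, pH 7.0, equilibrated with test article (10 mM DMSO stock) for >3 h, insolubles removed by centrifugation. Scanned 25 to 110° C. at 1° C./min; melting temperature taken from the DSC melting curve.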
(In general: In DSC, transitions show as peaks or steps in heat flow.)

A short description of data set [6]: Lipophilicity by experimental HPLC retention time. It is filed as physicochemical. To be noted: HPLC retention time as measure of lipophilicity; C18, 10 to 90% CH3CN/H2O with 0.1% FA over 25 min. A digest of the protocol:
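Reversed-phase HPLC with diode array detection on a Kinetex EVO C18 150×4.6, 2.6 μm column. Gradient 10 to 90% CH3CN/H2O with 0.1% FA over 25 min; retention time serves as the lipophilicity measure.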

Data set [7] concerns IGROV-1 (Ovarian Adenocarcinoma). The data set is described as follows: Cell proliferation assay, IGROV-1. The class given is cell-based. The note with it: 5 nights. The protocol:
as §1, §2, §3

The term half-life denotes the time needed for the level to fall by half in the phase considered. Read a high half-life as slow loss. The EC50 is the concentration giving half of the maximal effect. Take `CC(C)[C@H]1C(=O)OC[C@@H](NC(=O)c2nc3ccccc3cc2O)C(=O)N2CCCC[C@H]2C(=O)NCC(=O)N(C)CC(=O)N(C)[C@@H](C(C)C)C(=O)OC[C@@H](NC(=O)c2nc3ccccc3cc2O)C(=O)N2CCCC[C@H]2C(=O)NCC(=O)N(C)CC(=O)N1C` [Sandramycin, N,N′-((7R,11S,19aS,26R,30S,38aS)-11,30-diisopropyl-12,15,31,34-tetramethyl-6,10,13,16,19,25,29,32,35,38-decaoxodotriacontahydro-2H,6H,10H,25H-dipyrido[2,1-b1:2′,1′-l][1,17]dioxa[4,7,10,13,20,23,26,29]octaazacyclodotriacontine-7,26-diyl)bis(3-hydroxyquinoline-2-carboxamide), reference compound]: the half-life at 1 μM in data set [1] was 5.9 h. In addition, the EC50 was found to be 0.8 nM in data set [2], 3.3 nM in data set [3] and 1.6 nM in data set [7]. The “pIC50 (average)” value in data set [4] came out at 9.0. Further, in data set [5], the “DNA melt (° C.)” value was determined as 102 °C. Moreover, the “HPLC” value in data set [6] is given as 21.6 min.
